Experimental data taken from patent US5883098A, “Piperazine derivatives” (Fujisawa Pharmaceutical Co., Ltd., priority 1993, dated 1999).
Structures can show the parent of a compound that is named as a salt.

molecular target: T1, guinea pig lung membranes (Cavia porcellus, UniProt P30547); assay: ^3 H-Substance P binding to guinea pig lung membranes; conditions: at the concentration of 1 μg/ml; read-out: inhibition rate of ^3 H-Substance P binding to guinea pig lung membranes
T1 construct: The trachea and lung were removed and homogenized in ice-cold buffer; from tissue; host or cells: guinea pig (male Hartley strain) trachea and lung, crude membrane fraction
Procedure: ^3 H-Substance P Binding to Guinea Pig Lung Membranes Test Method
^3 H-Substance P Binding to Guinea Pig Lung Membranes
(a) Crude lung membrane preparation
Male Hartly strain guinea pigs were stunned and bled. The trachea and lung were removed and homogenized in ice-cold buffer (0.25M sucrose, 50 mM Tris-HCl pH 7.5, 0.1 mM EDTA) by using Polytoron (Kinematica). The homogenate was centrifuged (1000×g, 10 minutes) to remove tissue clumps and the supernatant was centrifuges (35000×g, 20 minutes) to yield pellet. The pellet was resuspended in buffer (5 mM Tris-HCl pH 7.5), homogenized with a teflon homogenizer and centrifuged (35000×g, 20 minutes) to yield pellet which was referred to as crude membrane fractions. The obtained pellet was resuspended in buffer (50 mM Tris-HCl pH 7.5) and stored at -70° C. until use.
(b) ^3 H-Substance P binding to preparation membrane
Frozen crude membrane fractions were thawed and resuspended in Medium 1 (50 mM Tris-HCl pH 7.5, 1 mM MnCl2, 0.02% BSA, 2 μg/ml chymostatin, 4 μg/ml leupeptin, 40 μg/ml bacitracin, 10 μM phosphoramidon). ^3 H-Substance P (1 nM) was incubated with 100 μl of the membrane preparations with or without test compounds in Medium 1 at 25° C. for 30 minutes in a final volume of 500 μl. At the end of the incubation period, 5 ml ice-cold 50 mM Tris-HCl buffer was added to each tube and its content was quickly filtered over a Wahtman GF/B glass filter (pretreated with 0.1% polyethylene imine for 3 hours prior to use) under aspiration. Each of the filters was then washed four times with 5 ml of ice-cold buffer (50 mM Tris-HCl pH 7.5). […] All data presented are specific binding defined as that displaceable by 5 μM unlabeled Substance P.

T1 sequence (P30547 whole entry): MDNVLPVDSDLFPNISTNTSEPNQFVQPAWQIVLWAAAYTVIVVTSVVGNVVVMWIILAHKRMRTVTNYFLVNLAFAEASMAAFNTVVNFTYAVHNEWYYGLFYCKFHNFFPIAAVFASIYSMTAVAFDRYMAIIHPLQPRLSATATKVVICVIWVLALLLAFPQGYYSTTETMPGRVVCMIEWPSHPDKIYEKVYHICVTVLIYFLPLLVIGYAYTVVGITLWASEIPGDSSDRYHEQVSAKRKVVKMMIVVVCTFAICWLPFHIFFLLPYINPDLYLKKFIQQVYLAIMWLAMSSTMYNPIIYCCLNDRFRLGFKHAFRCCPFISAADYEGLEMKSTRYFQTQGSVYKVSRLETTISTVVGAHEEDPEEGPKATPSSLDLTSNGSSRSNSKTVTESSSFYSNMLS

inhibition at 1 µg/mL [%]	SMILES
> 90	O=C(c1cc(C(F)(F)F)cc(C(F)(F)F)c1)N1CCNC[C@H]1Cc1ccccc1 [Example 7-7]
> 90	O=C(/C=C/c1ccccc1)N1CCN(C(=O)c2cc(C(F)(F)F)cc(C(F)(F)F)c2)[C@H](Cc2c[nH]c3ccccc23)C1 [Example 17-1, (2R)-1-[3,5-Bis(trifluoromethyl)benzoyl]-2-(1H-indol-3-yl-methyl)-4-(trans-cinnamoyl)piperazine]
> 90	O=C(/C=C/c1ccc(F)cc1)N1CCN(C(=O)c2cc(C(F)(F)F)cc(C(F)(F)F)c2)[C@H](Cc2c[nH]c3ccccc23)C1 [Example 17-2, (2R)-1-[3,5-Bis(trifluoromethyl)benzoyl]-2-(1H-indol-3-yl-methyl)-4-(4-fluoro-trans-cinnamoyl)piperazine]
> 90	O=C(CCc1ccccc1)N1CCN(C(=O)c2cc(C(F)(F)F)cc(C(F)(F)F)c2)[C@H](Cc2ccccc2)C1 [Example 17-4, (2R)-2-Benzyl-1-[3,5-bis(trifluoromethyl)benzoyl]-4-(3-phenylpropionyl)piperazine]
> 90	O=C(CCCc1ccccc1)N1CCN(C(=O)c2cc(C(F)(F)F)cc(C(F)(F)F)c2)[C@H](Cc2ccccc2)C1 [Example 17-5, (2R)-2-Benzyl-1-[3,5-bis(trifluoromethyl)benzoyl]-4-(4-phenylbutyryl)piperazine]
> 90	O=C(CCc1c[nH]c2ccccc12)N1CCN(C(=O)c2cc(C(F)(F)F)cc(C(F)(F)F)c2)[C@H](Cc2ccccc2)C1 [Example 17-10, (2R)-2-Benzyl-1-[3,5-bis(trifluoromethyl)benzoyl]-4-[3-(1H-indol-3-yl)propionyl]piperazine]
> 90	O=C(CCCc1c[nH]c2ccccc12)N1CCN(C(=O)c2cc(C(F)(F)F)cc(C(F)(F)F)c2)[C@H](Cc2ccccc2)C1 [Example 17-11, (2R)-2-Benzyl-1-[3,5-bis(trifluoromethyl)benzoyl]-4-[4-(1H-indol-3-yl)butyryl]piperazine]
> 90	O=C(/C=C/c1ccc([N+](=O)[O-])cc1)N1CCN(C(=O)c2cc(C(F)(F)F)cc(C(F)(F)F)c2)[C@H](Cc2ccccc2)C1 [Example 17-24, (2R)-2-Benzyl-1-[3,5-bis(trifluoromethyl)benzoyl]-4-(4-nitro-trans-cinnamoyl)piperazine]
> 90	CN(C)C(=O)N1CCN(C(=O)c2cc(C(F)(F)F)cc(C(F)(F)F)c2)[C@H](Cc2c[nH]c3ccccc23)C1 [Example 19-1, (2R)-1-[3,5-Bis(trifluoromethyl)benzoyl]-2-(1H-indol-3-yl-methyl) -4-(N,N-dimethylaminocarbonyl)piperazine]
> 90	CN(C)C(=O)N1CCN(C(=O)c2cc(C(F)(F)F)cc(C(F)(F)F)c2)[C@H](Cc2ccccc2)C1 [Example 19-4, (2R)-2-Benzyl-1-[3,5-bis(trifluoromethyl)benzoyl]-4-(N,N-dimethylcarbamoyl)piperazine]
> 90	CC(=O)N1CCN(C(=O)c2cc(C(F)(F)F)cc(C(F)(F)F)c2)[C@H](Cc2ccc(C)c(C)c2)C1 [Example 19-10, (2R)-4-Acetyl-1-[3,5-bis(trifluoromethyl)benzoyl]-2-(3,4-dimethylbenzyl)piperazine]

SMILES	inhibition at 1 µg/mL [%]
CN(C)CC(=O)N1CCN(C(=O)c2cc(C(F)(F)F)cc(C(F)(F)F)c2)[C@H](Cc2c[nH]c3ccccc23)C1 [Example 24-4, (2R)-1-[3,5-Bis(trifluoromethyl)benzoyl]-2-(1H-indol-3-yl-methyl)-4-[2-(N,N-dimethylamino)acetyl]-piperazine hydrochloride]	> 90
Cc1ccc(C[C@@H]2CNCCN2C(=O)c2cc(C(F)(F)F)cc(C(F)(F)F)c2)cc1C [Example 24-8, (2R)-1-[3,5-Bis(trifluoromethyl)benzoyl]-2-(3,4-dimethylbenzyl) piperazine hydrochloride]	> 90

molecular target: T2, h-NK1 receptors (Homo sapiens, UniProt P25103); assay: ^125 I-BH-Substance P binding to h-NK1 receptors; conditions: at the concentration of 0.1 μg/ml; CHO cell membranes expressing h-NK1 receptors; read-out: inhibition rate of ^125 I-BH-Substance P binding to h-NK1 receptors
T2 construct: expressed in transfected cells; host or cells: CHO cells
Procedure: ^125 I-BH-Substance P Binding to h-NK1 Receptors Test Method
^125 I-BH-Substance P Binding to h-NK1 Receptors
(a) Crude CHO cell membrane preparation
CHO cells permanently expressing h-NK1 receptors were harvested and homogenized with a Dounce homogenizer at 4° C. in a buffer (0.25M sucrose, 25 mM Tris-HCl pH 7.4, 10 mM MgCl2, 1 mM EDTA, 5 μg/ml p-APMSF). The homogenate was centrifuged (500×g, 10 minutes), and the pellet was resuspended in the same buffer, homogenized, and centrifuged. The two supernatants were combined and centrifuged (100,000×g, 1 hour). The crude cell membranes thus isolated were resuspended in buffer (25 mM Tris-HCl pH 7.4, 10 mM MgCl2, 1 mM EDTA, 5 μg/ml p-APMSF) and stored at -80° C. until use.
(b) ^125 I-BH-Substance P binding to preparation membrane Cell membranes (6 μg/ml) were incubated with ^125 I-BH-Substance P (0.1 nM) with or without test compounds in 0.25 ml of Medium 2(50 mM Tris-HCl pH 7.4, 5 mM MnCl2, 20 μg/ml chymostatin, 40 μg/ml bacitracin, 4 μg/ml leupeptin, 5 μg/ml p-APMSF, 200 μg/ml BSA) at 22° C. for 90 minutes. At the end of the incubation period, the content was quickly filtered over a Wahtman GF/C glass filter (pretreated with 0.1% polyethylene imine for 3 hours prior to use) under aspiration. Each of the filters was then washed four times with 5 ml of buffer (50 mM Tris-HCl pH 7.4, 5 mM MnCl2). The radioactivity was counted by using Auto Gamma counter (Packerd RIASTAR 5420A). All data presented are specific binding defined as that displaceable by 3 μM unlabeled Substance P.

T2 sequence (P25103 whole entry): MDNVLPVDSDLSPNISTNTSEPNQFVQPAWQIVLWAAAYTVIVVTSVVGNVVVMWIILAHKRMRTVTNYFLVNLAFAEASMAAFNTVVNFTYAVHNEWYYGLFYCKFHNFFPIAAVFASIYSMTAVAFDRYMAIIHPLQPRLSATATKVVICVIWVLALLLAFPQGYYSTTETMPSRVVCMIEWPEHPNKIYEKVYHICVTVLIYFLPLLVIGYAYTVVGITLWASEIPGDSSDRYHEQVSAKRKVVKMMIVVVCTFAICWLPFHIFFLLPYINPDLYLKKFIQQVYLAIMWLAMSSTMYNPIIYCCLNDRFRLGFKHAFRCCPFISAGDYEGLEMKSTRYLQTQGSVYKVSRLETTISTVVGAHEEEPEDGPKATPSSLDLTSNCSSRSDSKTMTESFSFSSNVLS

inhibition at 0.1 µg/mL [%]	SMILES
> 90	O=C(/C=C/C1CCCCC1)N1CCN(C(=O)c2cc(C(F)(F)F)cc(C(F)(F)F)c2)[C@H](Cc2c[nH]c3ccccc23)C1 [Example 17-50, (2R)-1-[3,5-Bis(trifluoromethyl)benzoyl]-4-[(3-cyclo-hexyl)-trans-acryloyl]-2-(1H-indol-3-yl-methyl)-piperazine]
> 90	O=C(C1CC1)N1CCN(C(=O)c2cc(C(F)(F)F)cc(C(F)(F)F)c2)[C@H](Cc2c[nH]c3ccccc23)C1 [Example 17-56, (2R)-1-[3,5-Bis(trifluoromethyl)benzoyl]-4-(cyclo-propylcarbonyl)-2-(1H-indol-3-yl-methyl)piperazine]
> 90	O=C(/C=C/c1cccnc1)N1CCN(C(=O)c2cc(C(F)(F)F)cc(C(F)(F)F)c2)[C@H](Cc2c[nH]c3ccccc23)C1 [Example 17-57, (2R)-1-[3,5-Bis(trifluoromethyl)benzoyl]-2-(1H-indol-3-yl-methyl)-4-[3-(3-pyridyl)-trans-acryloyl]-piperazine]
> 90	Cc1ccc(C[C@@H]2CN(C(=O)/C=C/C3CCCCC3)CCN2C(=O)c2cc(C(F)(F)F)cc(C(F)(F)F)c2)cc1C [Example 17-60, (2R)-1-[3,5-Bis(trifluoromethyl)benzoyl]-2-(3,4-dimethylbenzyl)-4-(3-cyclohexyl-trans-acryloyl)piperazine]
> 90	CS(=O)(=O)N1CCN(C(=O)c2cc(C(F)(F)F)cc(C(F)(F)F)c2)[C@H](Cc2c[nH]c3ccccc23)C1 [Example 19-13, (2R)-1-[3,5-Bis(trifluoromethyl)benzoyl]-2-(1H-indol-3-yl-methyl)-4-mesylpiperazine]
> 90	CC(=O)Nc1nc(/C=C/C(=O)N2CCN(C(=O)c3cc(C(F)(F)F)cc(C(F)(F)F)c3)[C@H](Cc3c[nH]c4ccccc34)C2)cs1 [Example 21-3, (2R)-4-[3-[2-(Acetylamino)thiazol-4-yl]-trans-acryloyl]-1-[3,5-bis(trifluoromethyl)benzoyl]-2-(1H-indol-3-yl-methyl)piperazine]
> 90	NC(=O)CN1CCN(C(=O)c2cc(C(F)(F)F)cc(C(F)(F)F)c2)[C@H](Cc2c[nH]c3ccccc23)C1 [Example 25-2, (^2 R)-1-[3,5-Bis(trifluoromethyl)benzoyl]-2-(1H-indol-3-yl-methyl)-4-(carbamoylmethyl)piperazine]
> 90	CNC(=O)CN1CCN(C(=O)c2cc(C(F)(F)F)cc(C(F)(F)F)c2)[C@H](Cc2c[nH]c3ccccc23)C1 [Example 26, (2R)-1-[3,5-bis (trifluoromethyl)benzoyl]-2-(1H-indol-3-yl-methyl)-4-(N-methylcarbamoylmethyl)piperazine hydrochloride]
> 90	CN1CCN(NC(=O)CN2CCN(C(=O)c3cc(C(F)(F)F)cc(C(F)(F)F)c3)[C@H](Cc3c[nH]c4ccccc34)C2)CC1 [Example 77, (2R)-1-[3,5-bis(trifluoromethyl)benzoyl]-2-(1H-indol-3-ylmethyl)-4-[N-(4-methyl-1-piperazinyl)carbamoylmethyl]piperazine]
> 90	CC(C)(C)C(=O)Nc1nc(CN2CCN(C(=O)c3cc(C(F)(F)F)cc(C(F)(F)F)c3)[C@H](Cc3c[nH]c4ccccc34)C2)cs1 [Example 79-4]
> 90	CCCC(=O)Nc1nc(CN2CCN(C(=O)c3cc(C(F)(F)F)cc(C(F)(F)F)c3)[C@H](Cc3c[nH]c4ccccc34)C2)cs1 [Example 79-6]
